Earlier results on one molecule are cited in patent publication US20220016310A1, “ANTIMICROBIAL SHAPE MEMORY POLYMERS” (THE TEXAS A&M UNIVERSITY SYSTEM, priority 2016, published 2022).

The subject of the series is antibiotic-resistant bacteria (Enterobacter aerogenes, Escherichia coli, and Staphylococcus aureus). To be noted: bacteria obtained from hospitals.

As for `O=C(O)C=Cc1ccccc1` [cinnamic acid], the “Susceptibility of antibiotic-resistant bacteria” value is listed as “susceptible”.
